Measured values from patent US20040171543A1, “Matrix metalloproteinase inhibitors and methods for identification of lead compounds” (priority 2002, published 2004).
Marks after values point to notes of the source that are not given here. Each block holds one molecule with its values, some of them ahead of it.

Tests used:
[1] = target: T1, MMP-2 (Homo sapiens, UniProt P08253); settings: Curtin et al.; cited from earlier work
T1 sequence (P08253 110-660): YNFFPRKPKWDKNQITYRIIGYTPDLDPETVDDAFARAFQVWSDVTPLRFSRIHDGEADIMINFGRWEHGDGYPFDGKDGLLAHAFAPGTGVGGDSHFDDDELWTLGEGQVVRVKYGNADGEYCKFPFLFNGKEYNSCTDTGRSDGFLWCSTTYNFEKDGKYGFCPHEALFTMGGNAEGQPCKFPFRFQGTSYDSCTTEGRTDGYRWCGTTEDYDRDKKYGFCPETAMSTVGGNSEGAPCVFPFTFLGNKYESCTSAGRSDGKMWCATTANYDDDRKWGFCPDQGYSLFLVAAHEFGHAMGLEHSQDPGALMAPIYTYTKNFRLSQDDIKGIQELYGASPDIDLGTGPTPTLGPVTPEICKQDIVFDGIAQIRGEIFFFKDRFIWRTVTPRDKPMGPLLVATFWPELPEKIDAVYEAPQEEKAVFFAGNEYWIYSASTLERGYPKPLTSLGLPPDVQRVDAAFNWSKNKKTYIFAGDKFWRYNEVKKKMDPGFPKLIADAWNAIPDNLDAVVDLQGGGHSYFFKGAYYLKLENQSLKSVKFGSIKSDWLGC

[2] = test system: MMP-2 and MMP-9; settings: Wada et al.; cited from earlier work
[3] = test system: tumor growth; settings: murine syngenetic tumor growth model; cited from earlier work
[4] = target: MMP-12 (Homo sapiens, UniProt P39900); settings: literature; cited from earlier work
[5] = target: T2, MMP-1 (Homo sapiens, UniProt P03956); settings: Chen et al.; cited from earlier work
T2 sequence (P03956 100-469): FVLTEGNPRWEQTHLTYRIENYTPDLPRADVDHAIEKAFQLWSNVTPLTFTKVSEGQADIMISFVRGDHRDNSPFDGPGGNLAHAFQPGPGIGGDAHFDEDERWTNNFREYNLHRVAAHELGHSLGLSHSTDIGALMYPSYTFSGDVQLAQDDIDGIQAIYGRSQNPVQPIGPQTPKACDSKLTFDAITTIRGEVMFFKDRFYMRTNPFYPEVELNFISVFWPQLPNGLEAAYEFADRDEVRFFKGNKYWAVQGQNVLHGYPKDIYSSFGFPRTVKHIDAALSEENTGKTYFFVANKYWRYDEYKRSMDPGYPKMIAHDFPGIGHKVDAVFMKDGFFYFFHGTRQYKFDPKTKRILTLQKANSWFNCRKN

[6] = target: MMP-9 (Homo sapiens, UniProt P14780); settings: Chen et al.; cited from earlier work
[7] = target: MMP-13 (Homo sapiens, UniProt P45452); settings: Chen et al.; cited from earlier work
[8] = target: TACE (Homo sapiens, UniProt P78536); settings: Chen et al.; cited from earlier work
[9] = target: T3, MMP-13 catalytic domain (MMP-13CD) (Homo sapiens, UniProt P45452); assay: Fluorigenic peptide-1 substrate based assay, MMP-13CD, with/without AcNHOH; assay type: biochemical; settings: IC50 with AcNHOH divided by IC50 without
T3 construct: The catalytic domain of the MMP-13 enzyme, namely matrix metalloproteinase-13 catalytic domain (“MMP-13CD”)
Method: The catalytic domain of the MMP-13 enzyme, namely matrix metalloproteinase-13 catalytic domain (“MMP-13CD”), rather than the corresponding full-length enzyme, MMP-13 was used in such assay.
50 mM HEPES buffer (pH 7.0)
2% DMSO (with or without inhibitor test compound)
1. Dispensed 2 μL inhibitor test sample (in 100% DMSO) into well.
2. Added 88 μL assay mixture and mixed well, avoiding bubbles.
3. Initiated reactions with 10 μL of 5 nM MMP-13CD; mixed well, avoiding bubbles.
4. Immediately measured the kinetics of the reactions at room temperature.
Alternatively, an endpoint read can also be used to determine reaction velocity provided the initial fluorescence of the solution, as recorded before addition of enzyme, is subtracted from the final fluorescence of the reaction mixture.

MMP-12, sequence (P39900 106-470): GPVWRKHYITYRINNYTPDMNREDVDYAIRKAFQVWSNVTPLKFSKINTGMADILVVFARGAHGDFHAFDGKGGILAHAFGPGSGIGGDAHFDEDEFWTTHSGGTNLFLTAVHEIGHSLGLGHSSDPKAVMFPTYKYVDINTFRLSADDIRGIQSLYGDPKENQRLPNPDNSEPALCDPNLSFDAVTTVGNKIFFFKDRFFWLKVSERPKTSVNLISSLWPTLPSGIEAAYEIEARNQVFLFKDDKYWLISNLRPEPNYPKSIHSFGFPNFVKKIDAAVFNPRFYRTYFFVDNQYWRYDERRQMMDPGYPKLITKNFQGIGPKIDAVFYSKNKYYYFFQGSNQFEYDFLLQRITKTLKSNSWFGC
TACE, sequence (P78536 215-824): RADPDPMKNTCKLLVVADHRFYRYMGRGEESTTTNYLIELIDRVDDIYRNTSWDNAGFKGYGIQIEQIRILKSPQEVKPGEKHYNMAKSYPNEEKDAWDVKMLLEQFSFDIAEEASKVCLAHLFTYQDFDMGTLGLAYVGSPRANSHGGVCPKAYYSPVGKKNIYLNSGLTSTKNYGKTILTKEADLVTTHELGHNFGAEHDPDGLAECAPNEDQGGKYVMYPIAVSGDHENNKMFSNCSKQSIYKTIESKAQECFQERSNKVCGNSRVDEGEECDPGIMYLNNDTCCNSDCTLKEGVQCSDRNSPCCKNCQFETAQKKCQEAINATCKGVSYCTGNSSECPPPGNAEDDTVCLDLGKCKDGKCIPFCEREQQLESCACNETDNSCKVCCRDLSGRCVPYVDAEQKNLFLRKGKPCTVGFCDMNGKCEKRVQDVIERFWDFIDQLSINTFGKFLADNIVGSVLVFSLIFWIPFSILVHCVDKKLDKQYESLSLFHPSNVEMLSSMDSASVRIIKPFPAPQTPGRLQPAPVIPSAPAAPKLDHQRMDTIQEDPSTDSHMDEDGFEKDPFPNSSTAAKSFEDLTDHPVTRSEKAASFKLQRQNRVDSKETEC
MMP-9, sequence (P14780 94-707): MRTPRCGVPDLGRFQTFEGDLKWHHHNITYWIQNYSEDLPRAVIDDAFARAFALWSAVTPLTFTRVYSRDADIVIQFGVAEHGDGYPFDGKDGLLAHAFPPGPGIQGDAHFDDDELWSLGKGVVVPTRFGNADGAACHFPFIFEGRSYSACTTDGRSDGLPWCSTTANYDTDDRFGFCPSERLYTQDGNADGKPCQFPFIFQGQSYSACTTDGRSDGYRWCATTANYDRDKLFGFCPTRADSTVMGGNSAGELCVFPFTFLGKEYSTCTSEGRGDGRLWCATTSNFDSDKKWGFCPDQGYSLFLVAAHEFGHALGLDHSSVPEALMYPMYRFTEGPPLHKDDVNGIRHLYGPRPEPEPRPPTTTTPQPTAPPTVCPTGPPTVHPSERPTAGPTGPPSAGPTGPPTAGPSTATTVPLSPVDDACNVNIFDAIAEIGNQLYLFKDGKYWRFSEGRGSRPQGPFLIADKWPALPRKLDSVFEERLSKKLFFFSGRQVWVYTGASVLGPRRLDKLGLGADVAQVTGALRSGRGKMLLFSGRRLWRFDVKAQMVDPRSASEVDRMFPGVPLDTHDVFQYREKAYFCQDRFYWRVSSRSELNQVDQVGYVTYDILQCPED

SMILES: CC1(C)NC(=O)N(C[C@@H](COc2ccc(-c3ccc(OC(F)(F)F)cc3)cc2)N(O)C=O)C1=O
Selectivity for MMP-2 versus MMP-1 [1]: highly selective

SMILES: CC1(C)OCC([C@@H](CS(=O)(=O)c2ccc(Oc3ccc(OC(F)(F)F)cc3)cc2)N(O)C=O)O1 (some centres unmarked)
Selectivity for inhibition of MMP-2 and MMP-9 over MMP-1 [2]: selective
Antitumor activity [3]: demonstrated antitumor activity

SMILES: COc1ccc(S(=O)(=O)N(Cc2cccnc2)[C@@H](C(=O)NO)C(C)C)cc1 [CGS27023A]
IC50 [4]: 2 nM

SMILES: O=C(NCCCCN1CCOCC1)c1cc2ccccc2o1 [CL-82198]
Activity against MMP-1 [5]: complete lack of activity
Activity against MMP-9 [6]: complete lack of activity
Inhibition of MMP-13 [7]: weak inhibition
Activity against TACE [8]: complete lack of activity

IC50 Ratio (±) [9]: 0.47^a
SMILES: Nc1ccc(-c2ccc(S(N)(=O)=O)cc2)cc1 [Entry 1]

IC50 Ratio (±) [9]: 0.04
SMILES: NS(=O)(=O)c1ccc(-c2ccc([N+](=O)O)cc2)cc1 [Entry 2]

IC50 Ratio (±) [9]: 0.56
SMILES: COc1ccc(NC(=O)Nc2ccc3nc(C)cc(N)c3c2)cc1 [Entry 3]

IC50 Ratio (±) [9]: 0.07^a
SMILES: Cc1cc(O)nc(SCc2ccc(Cl)cc2)n1 [Entry 4]

IC50 Ratio (±) [9]: 1.16
SMILES: Cc1c(-c2ccc(-n3ccnc3)cc2)[nH][nH]c1=O [Entry 5]

IC50 Ratio (±) [9]: 0.82
SMILES: CCOC(=O)/C=C/c1ccc(-n2ccnc2)cc1 [Entry 6]
